From article PMC10160475, “Biological evaluation and in silico studies of novel compounds as potent TAAR1 agonists that could be used in schizophrenia treatment” (Frontiers in Pharmacology, 2023)

What was measured:
catalepsy = test: Catalepsy assay (bar test); type: in vivo, C57BI/6J mice; settings: 100 mg/kg p.o., 30 and 90 min after administration
Protocol: Twenty-four male C57BI/6J mice were divided randomly into four groups. Mice were placed in a room 1 h before testing. […] The front paws of mice were placed on a horizontal metal bar raised 2 inches above a Plexiglas™ platform 30 min and 90 min after administration. The time the front paws of mice were placed on the platform was recorded at ≤30 s per trial. Each test was repeated three times.

[1] = Tissue distribution (brain and plasma) in rats; type: in vivo, Sprague–Dawley rats
Protocol: Rats (three males and three females) were sacrificed at 0.25, 1, or 6 h after administration of 50B (5 mg/kg, i.g.). Blood and brain tissues were harvested. The concentration of compounds in all tissue and blood samples was determined by LC-MS/MS. Drug concentration data were processed in a non-atrioventricular model using WinNonlin™ 6.3.

human 5-HT1A = biological target: T1, human 5-HT1A (Homo sapiens, UniProt P08908); test: Calcium (FLIPR) assay, agonist activity at human 5-HT1A; type: cell-based
T1 construct: expressed in transfected cells; host or cells: Gα15-CHO-Clone cells
T1 sequence (P08908 1-422): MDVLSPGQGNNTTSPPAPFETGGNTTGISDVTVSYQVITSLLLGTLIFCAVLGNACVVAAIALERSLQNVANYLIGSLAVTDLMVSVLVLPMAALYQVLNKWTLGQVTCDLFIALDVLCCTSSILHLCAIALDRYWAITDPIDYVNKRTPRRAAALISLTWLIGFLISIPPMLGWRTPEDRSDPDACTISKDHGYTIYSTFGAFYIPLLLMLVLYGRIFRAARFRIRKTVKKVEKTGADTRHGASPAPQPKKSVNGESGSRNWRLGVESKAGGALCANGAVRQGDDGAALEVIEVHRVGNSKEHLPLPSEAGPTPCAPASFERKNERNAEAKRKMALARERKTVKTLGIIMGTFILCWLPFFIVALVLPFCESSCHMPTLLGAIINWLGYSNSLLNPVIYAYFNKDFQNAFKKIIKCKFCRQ
Protocol: With respect to 5-HT1A, recombinant Gα15-CHO-Clone cells expressing human 5-HT1A were used in this test. Cells were cultured with MEM supplemented with 10% FBS, penicillin (100 U/ml), streptomycin (100 μg/ml), and hygromycin B (600 μg/ml) and were seeded in 384-well microplates. Cells were stimulated with different concentrations of compounds for 2 h at 37°C, and the agonistic effect was determined using the FLIPR Calcium Assay Kit. Serotonin was used as the MAX control. Percentage activity was calculated using the following equation: Activity %=mean RLUtest sample−mean RLUvehicle control/mean RLUMAX control−mean RLUvehicle control×100%.

[2] = Liver microsomal stability, monkey
[3] = Liver microsomal stability, human
Protocol: Compounds were incubated with samples of liver microsomes from mice, rats, and humans and NADPH for 5, 10, 20, 30, or 60 min at 37°C. A cold acetonitrile solution containing tolbutamide was used to terminate the reaction. Testosterone and dextromethorphan were used as positive controls. LC-MS/MS was employed to determine the retention of compounds. The retention time, chromatogram acquisition, and chromatogram integration of compounds and positive control substances were analyzed using Analyst (AB Sciex, Framingham, MA, United States).

human TAAR1 = biological target: T2, human TAAR1 (Homo sapiens, UniProt Q96RJ0); test: cAMP assay, functional agonist activity at human TAAR1; type: cell-based
T2 construct: expressed in transfected cells; host or cells: cAMP Hunter CHO-K1 AGTRL1 Gi cells
T2 sequence (Q96RJ0 1-339): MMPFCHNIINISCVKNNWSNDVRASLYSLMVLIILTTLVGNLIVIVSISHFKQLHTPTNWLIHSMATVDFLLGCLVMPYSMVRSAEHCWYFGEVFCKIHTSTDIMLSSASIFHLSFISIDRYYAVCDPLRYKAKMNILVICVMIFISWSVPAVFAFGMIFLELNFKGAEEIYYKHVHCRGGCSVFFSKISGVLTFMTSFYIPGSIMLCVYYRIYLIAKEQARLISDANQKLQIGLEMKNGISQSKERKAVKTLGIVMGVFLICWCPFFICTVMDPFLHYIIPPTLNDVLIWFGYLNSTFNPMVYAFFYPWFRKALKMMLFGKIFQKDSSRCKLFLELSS
Protocol: Cells were seeded in a total volume of 20 µL into white-walled, 384-well microplates, followed by incubation at 37°C for the appropriate time before testing. Different concentrations of compounds were added to cells, and incubation was undertaken at 37°C for 10 min, with p-tyramine used as the MAX control. cAMP modulation was determined using the DiscoverX HitHunter cAMP XS + assay. Percentage activity was calculated using the following equation: Activity %=mean RLUtest sample – mean RLUvehicle control/mean RLUMAX control – mean RLUvehicle control×100%.

SMILES: c1csc([C@@H]2CNCCO2)c1 [Compound 50B]
- Time mice spent holding bars (catalepsy) (catalepsy): did not increase this time
- Concentration ratio brain to plasma compared with SEP-856 ([1]; rats, 5 mg/kg i.g.): increased significantly compared with that of SEP-856
- Plasma concentration compared with SEP-856 ([1]; rats, 5 mg/kg i.g., same time point): lower than that of SEP-856
- Detection in rat brain ([1]; single intragastric administration, 5 mg/kg, 0.25 to 6 h): detected in rat brains from 0.25 to 6 h
- EC50 (human 5-HT1A): 99.8 µM
- Emax (human 5-HT1A; serotonin as MAX control, up to 100 μM, read-out: 5-HT1A agonism Emax): 50.3%
- Remaining (T = 60 min) ([2]; Monkey liver microsomes, 60 min): 85.1%
- CLint scaled ([2]; monkey, liver microsomes): < 13.5 mL/min/kg
- half-life ([2]; monkey, microsomes): > 186 min
- Remaining (T = 60 min) ([3]; Human liver microsomes, 60 min): 77.2%
- CLint scaled ([3]; human, liver microsomes): 7.74 mL/min/kg
- half-life ([3]; human, liver microsomes): 161 min
- EC50 (human TAAR1): 405 nM
- Emax (human TAAR1; read-out: TAAR1 Agonist % Emax): 80.1%
